According to patent publication US20090274645A1, “GALL MIDGE PHEROMONE MIXTURE” (priority 2006, published 2009):
“Also recorded” adds a separate entry of the source. Read-outs that look alike come from different tables or passages of the source. Marks after values point to notes of the source that are not given here.

What was measured:
[1] = tested on: male Hessian fly antennae; assay: GC-EAD recordings of male antennal responses; set-up: species or system Mayetiola destructor; conditions: for antennal responses in males to synthetic compounds: GC-EAD, whole males mounted; for antennal responses to compounds in female gland extract: GC-EAD of female Hessian fly extract (20 female equivalents)
Excerpt: Coupled gas chromatographic-electroantennographic detection (GC-EAD, Arn et al 1975) was used to analyse female gland extracts. GC-EAD is an efficient tool to determine which compounds in an extract that the male antennae can perceive, by use of the highly specific olfactory receptor neurons. In a CC-EAD set-up (FIG. 3), the effluent of the GC column is split between the flame ionisation detector (FID) of the CC and the antennal detector (EAD). The GC separates the compounds in the extract over time and the compounds are detected by the FID. Simultaneously, the eluting compounds also pass the male antennae via a constant charcoal-filtered and humidified air stream. The male antennae are connected to two electrodes and, if the antennae perceive a compound, neural signals are generated and these signals are recorded as an electroantennogram (EAG). Since the olfactory receptors on the antennae are highly specific, they will more or less exclusively respond to the pheromone compounds in the extract. In addition to pheromone extracts, GC-EAD can be used to analyse all sorts of compound blends, e.g. host volatile collections and synthetic pheromone compounds. Irrespective of what kind of substances that are analysed, simultaneous recordings from the FID and the EAD give information on which compounds in the blend that are interesting for chemical identification and/or behavioural testing.
In addition to gland extracts, GC-EAD was used to analyse seven synthetic compounds (Table 2).
A Hewlett-Packard 6890 GC (Palo Alto, Calif., USA) with flame ionization detection and an Innowax column (30 m×0.25 mm ID, H-P) was used for the GC-EAD recordings. The column was programmed from 80° C./2 min to 220° C. at 10° C./min. Since male Hessian fly antennae are very sensitive to desiccation whole male bodies instead of excised antennae were mounted in an antenna holder (JoAC, Lund, Sweden) (FIG. 4). The antennal holder is made of Plexiglas with two wells connected to an amplifier by gold wire electrodes and males were mounted in the antennal holder as described by Hillbur et al (2001). The antennae were exposed to a charcoal-filtered and humidified air stream at a rate of ca 0.3 m/s through a glass tube (8 mm diameter). The signals from the antennae were amplified (JoAC) before they were recorded and analysed with ElectroAntennoGraphy software (Syntech, Hilversum, The Netherlands).

male Hessian flies [2] = assay: Y-tube olfactometer two-choice bioassays; type: in vivo, Mayetiola destructor
Excerpt: The attractiveness of different synthetic pheromone blends and female gland extracts were studied in a mobile glass Y-tube olfactometer, (FIG. 5a). The arms of the Y-tube were 14 cm long, the stem 12.5 cm and the inner diameter was 2.2 cm. Charcoal-filtered and humidified air was pumped (Micro pump NMP 30 KNDC, 12 V, KNF Neuberger, Germany) through Teflon tubes and entered each arm via a custom made 9.5 cm long glass tube, (Humi Glas, Södra Sandby, Sweden) (FIG. 5b). […] In the centre of the glass tube was a glass rod (ca 1 cm long; 0.5 cm diameter) containing a centred small hole. During experiments, the stimulus was applied on a small piece of filter paper (1.5×0.5 cm) attached to a ca 1.5 cm long steel wire. The steel wire was placed in the hole of the glass rod to position the stimulus in the centre of the tube. […]
Six different two-choice bioassays were performed to evaluate differences in attractiveness of the main pheromone component (abbreviated: 1), 2S-E10-13:OAc, a three-component blend (abbreviated: 3) consisting of 2S-E10-13:OAc, 2S-E10-13:OH and 2S-13:OAc, and two different four-component blends, both consisting of the compounds included in the three-component blend but with either 2S-E8-E10-13:OAc (abbreviated: 4E) or 2S-Z8-E10-13:OAc (abbreviated: 4Z) added. […] Data from the […] bioassays were analysed by chi-square tests.

[3] = tested on: male Hessian flies (antennal responses); conditions: Hillbur et al unpublished, cited from earlier work; for elicit antennal responses in male Hessian flies: GC-EAD; for known to elicit antennal responses (mark in Table 2): earlier GC-EAD
male Hessian flies [4] = conditions: field study, main compound alone, cited from earlier work
male Hessian flies [5] = conditions: wind tunnel, Harris and Foster (1991); cited from earlier work

SMILES	antennal responses in males to synthetic compounds [1]	antennal responses to compounds in female gland extract [1]	elicit antennal responses in male Hessian flies [3]	known to elicit antennal responses (mark in Table 2) [3]	also measured
CCCC/C=C/CCCCCCC[C@H](C)OC(C)=O [2S-E10-15:OAc, (2S,10E)-10-pentadecen-2-yl acetate]	did not elicit antennal responses; also recorded: No responses were recorded				
CC/C=C/CCCCCCCCC[C@H](C)OC(C)=O [2S-E12-15:OAc, (2S,12E)-12-pentadecen-2-yl acetate]	did not elicit antennal responses; also recorded: No responses were recorded				
CC/C=C\CCCCCCC[C@H](C)OC(C)=O [2S-Z10-13:OAc]	a response was recorded	antennal responses			antennal responses to compounds in female gland extract ([1]; listed as 23-Z10-13:OAc): respond
CC/C=C/C=C/CCCCC[C@H](C)OC(C)=O [2S-E8-E10-13:OAc, (2S,8E,10E)-8,10-tridecadien-2-yl acetate]	elicited antennal responses; also recorded: males respond; also recorded: responded				
CC/C=C/CCCCCCC[C@H](C)OC(C)=O [2S-E10-13:OAc, (2S,10E)-10-tridecen-2-yl acetate]	elicited antennal responses; also recorded: responded	antennal responses	elicit antennal responses	(2S-E10-13:OAc) *	responding males attracted when compared to blank (male Hessian flies [2]; Y-tube, main component alone versus blank): over 90%; attractiveness to males versus blank (male Hessian flies [2]; blank-1 bioassay, 10 ng, p<0.001): significantly more attracted; catch of male Hessian flies in the field (male Hessian flies [4]): did not catch any male Hessian flies; catch of male Hessian flies in the field (male Hessian flies [4]; listed as main component): did not catch any males; males that contacted the odour source (male Hessian flies [5]): 56%
CC/C=C/C=C\CCCCC[C@H](C)OC(C)=O [2S-Z8-E10-13:OAc, (2S,8Z,10E)-8,10-tridecadien-2-yl acetate]	elicited antennal responses; also recorded: males respond; also recorded: responded				
CCCCCCCCCCC[C@H](C)OC(C)=O [2S-13:OAc, (2S)-tridecan-2-yl acetate]	elicited antennal responses; also recorded: responded	antennal responses	elicit antennal responses	(2S-13:OAc) *	
CC/C=C/CCCCCCC[C@H](C)O [2S-E10-13:OH, (2S,10E)-10-tridecen-2-ol]	responded	antennal responses	elicit antennal responses	(2S-E10-13:OH) *	antennal responses in males to synthetic compounds ([1]; listed as 2S-E0-13:OH): elicited antennal responses
